Results taken from US10689381B2 (priority 2017, dated 2020).
Like-named read-outs stand apart in the source and are kept apart here.

Tests used:
[1] = tested on: L1210; test: cells; type: cell-based, mouse
Outline: (§1)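 Compound exposure ran 72 h at six concentrations (0–1000 nM or 0–10000 nM, duplicate) on cells plated at 30,000 cells/mL in 10% FBS DMEM. A closing 37 °C incubation took 15 min (HCT116) or 5 min (L1210).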

[2] = tested on: HCT116; test: cells; type: cell-based, human
Outline: as §1

[3] = tested on: A549-T24; test: cells; type: cell-based, human
From the text: (§2) 2001, 98:11737; Kavallaris et al., Brit. J. Cancer. 1999, 80:1020; and Kavallaris et al., J. Clin. Invest. 1997, 100:1282]. As a result, the comparison of cell growth inhibition of candidate drugs against A549 vs A549-T24 has been used to characterize potential resistance due to increased expression of class III β-tubulin [Goncalves et al., Proc. Natl. Acad. Sci. USA. 2001, 98:11737; Kavallaris et al., Brit. J. Cancer. 1999, 80:1020; and Kavallaris et al., J. Clin. Invest. 1997, 100:1282].

[4] = tested on: A549; test: cells; type: cell-based, human
From the text: as §2

[5] = tested on: Tubulin
Protocol: Control studies were performed with BODIPY-VBL in the absence of a competitive ligand (control 1, maximum FI enhancement) and in the absence of tubulin (control 2, no FI enhancement). Percent (%) BODIPY-VBL displacement was calculated by the formula: (control 1 FI−experiment FI)/(Control 1 FI−Control 2 FI)×100%. Reported values are the average of 5 measurements±SD.

[6] = tested on: HCT116/VM46; test: cells; type: cell-based, human; conditions: for IC50: read-out: IC50 HCT116/VM46
Protocol: Compounds were tested for their cell growth inhibition of L1210 (ATCC no. CCL-219, mouse lymphocytic leukemia), HCT116 (ATCC no. CCL-247, human colorectal carcinoma), and HCT116/VM46 (a vinblastine-resistant strain of HCT116) cells in culture. A population of cells (>1×10^6 cells/mL as determined with a hemocytometer) was diluted with Dulbecco's Modified Eagle Medium (DMEM, Gibco) containing 10% fetal bovine serum (FBS, Gibco) to give a final concentration of 30,000 cells/mL. To each well of a 96-well plate (Corning® Costar®) was added 100 μL of the cell media solution with a multichannel pipet. The cultures were incubated at 37° C. in an atmosphere of 5% CO2 and 95% humidified air for 24 hours.
The test compounds were then added to the plate as follows: test compounds were diluted in DMSO to a concentration of 1 mM. 10-Fold serial dilutions in DMSO were next performed on a separate 96-well plate. Fresh culture media (100 μL) was added to each well of cells resulting in 200 μL of medium per well followed by 2 μL of each test agent. Compounds were tested in duplicate (n=2-8 times) at six concentrations between 0-1000 nM or 0-10000 nM. Following the addition of compound, cultures were incubated for an additional 72 hours.
The plates were incubated at 37° C. for 5 minutes (L1210) or 15 min (HCT116 and HCT116/VM46). After the given incubation time, 50 μL of 0.1 N NaOH was added to each well and the absorption at 405 nm was determined using a 96 well plate reader. […]

[7] = tested on: HCT116; conditions: recent work, Gotoh et al. 2011; cited from earlier work
[8] = Homo sapiens, HCT-116, table b183, read-out: IC50 HCT116
[9] = Homo sapiens, A549, read-out: IC50 A549
[10] = Table 8, 10′-F compounds, read-out: IC50 HCT116
[11] = table b183, value in parentheses

What does the source list for `CC[C@]1(NC(=O)c2ccc(NS(C)(=O)=O)cc2)C[C@H]2CN(CCc3c([nH]c4ccccc34)[C@@](C(=O)OC)(c3cc4c(cc3OC)N(C)[C@H]3[C@@](O)(C(=O)OC)[C@H](OC(C)=O)[C@]5(CC)C=CCN6CC[C@]43[C@@H]65)C2)C1` [Compound 61]?
IC50 [1]: 0.06 nM; IC50 ([1]; Table 2): 0.4 nM; IC50 ([2]; Table 2, read-out: IC50 HCT116): 0.3 nM; IC50 ([2]; read-out: IC50 HCT116): 0.07 nM; IC50 [3]: 0.26 nM; IC50 ([4]; read-out: IC50 A549): 0.53 nM

Which results are given for `CC[C@]1(NC(=O)c2ccc(N(C)C)cc2)C[C@H]2CN(CCc3c([nH]c4ccccc34)[C@@](C(=O)OC)(c3cc4c(cc3OC)N(C)[C@H]3[C@@](O)(C(=O)OC)[C@H](OC(C)=O)[C@]5(CC)C=CCN6CC[C@]43[C@@H]65)C2)C1` [Compound 64]?
IC50 ([1]; Table 2): 0.18 nM; percent (%) displacement of tubulin-bound BODIPY-vinblastine ([5]; FIG. 2, competitive ligand 18 μM): 88±5%; IC50 ([2]; Table 2, read-out: IC50 HCT116): 0.18 nM

Which IC50 [1] does the source give for `CCC1(NC(=O)c2ccc3c(c2)CCCC3)CC2CN(CCc3c([nH]c4ccccc34)C(C(=O)OC)(c3cc4c(cc3OC)N(C)C3C(O)(C(=O)OC)C(OC(C)=O)C5(CC)C=CCN6CCC43C65)C2)C1` (stereo not drawn) [Compound 121] here?
The IC50 was 3 nM.

And the IC50 ([1]; Table 4)?
The IC50 was 3.3 nM.

What about the “% displacement” value ([5]; Table 9, displacement of tubulin bound BODIPY-vinblastine) of the same molecule?
Its value is 63 ± 5%.

What about the “relative tubulin binding affinity vs vinblastine” value ([5]; in words, b167) of the same molecule?
The value was “essentially indistinguishable from or perhaps slightly better than that of vinblastine”.

And the IC50 ([2]; Table 4, read-out: IC50 HCT116)?
The IC50 was 4.9 nM.

And the IC50 ([2]; Table 9, read-out: IC50 (nM, HCT116))?
The IC50 was 4.9 nM.

What about the IC50 ([2]; Table 10, read-out: IC50 (nM), HCT116) of the same molecule?
Its IC50 is 4.9 nM.

What about the IC50 ([2]; read-out: IC50 HCT116) of the same molecule?
The IC50 was 4.9 nM.

What about the “potency relative to vinblastine (more potent)” value ([2]; vinblastine-sensitive cell lines) of the same molecule?
Its value is “about 2 fold”.

And the IC50 [3]?
The IC50 was 6.5 nM.

What about the IC50 ([4]; read-out: IC50 A549) of the same molecule?
The IC50 was 7.6 nM.

What does the source list for `CCC1(NC(=O)c2cn(C)cn2)CC2CN(CCc3c([nH]c4ccccc34)C(C(=O)OC)(c3cc4c(cc3OC)N(C)C3C(O)(C(=O)OC)C(OC(C)=O)C5(CC)C=CCN6CCC43C65)C2)C1` (stereo not drawn) [Compound 142]?
IC50 ([1]; Table 5): 80 nM; IC50 ([6]; Table 5): > 1000 nM; IC50 ([2]; Table 5, read-out: IC50 HCT116): 50 nM

With `CCC1(NC(=O)C2CCNCC2)CC2CN(CCc3c([nH]c4ccccc34)C(C(=O)OC)(c3cc4c(cc3OC)N(C)C3C(O)(C(=O)OC)C(OC(C)=O)C5(CC)C=CCN6CCC43C65)C2)C1` (stereo not drawn) [Compound 146] as the molecule, how does the IC50 ([1]; Table 5) read?
Its IC50 is 4200 nM.

What about the IC50 ([6]; Table 5) of the same molecule?
The IC50 was over 10000 nM.

And the IC50 ([2]; Table 5, read-out: IC50 HCT116)?
Its IC50 is over 10000 nM.

For `CCC1(O)C[C@H]2CN(CCc3c([nH]c4ccc(F)cc34)[C@@](C(=O)OC)(c3cc4c(cc3OC)N(C)C3C(O)(C(=O)OC)[C@H](OC(C)=O)[C@]5(CC)C=CCN6CC[C@]43[C@@H]65)C2)C1` (stereo partly drawn) [Compound 187, 10′-fluorovinblastine, reference compound], which “improvement in activity over vinblastine” value [7] is on record?
The value was about 10 fold.

And the IC50 ([1]; Mus musculus, L1210, Table 8, 10′-F compounds)?
Its IC50 is 0.6 nM.

What about the IC50 ([1]; Mus musculus, L1210, table b183) of the same molecule?
The IC50 was 0.7 nM.

What about the IC50 ([2]; Homo sapiens, HCT-116, Table 8, 10′-F compounds, read-out: IC50 HCT116) of the same molecule?
The IC50 was 0.7 nM.

And the IC50 [2, 8]?
Its IC50 is 0.8 nM.

What about the IC50 ([3]; Homo sapiens) of the same molecule?
The IC50 was under 8 nM.

What about the IC50 [4, 9] of the same molecule?
The IC50 was 2.9 nM.

Which IC50 ([1]; Table 8, 10′-F compounds) does the source give for `CC[C@]1(NC(=O)c2ccc(OC(F)(F)F)cc2)C[C@H]2CN(CCc3c([nH]c4ccc(F)cc34)[C@@](C(=O)OC)(c3cc4c(cc3OC)N(C)[C@H]3[C@@](O)(C(=O)OC)[C@H](OC(C)=O)[C@]5(CC)C=CCN6CC[C@]43[C@@H]65)C2)C1` [Compound 188] here?
Its IC50 is 0.6 nM.

And the IC50 [2, 10]?
Its IC50 is 0.7 nM.

For `CC[C@]1(NC(=O)c2ccc3c(c2)CCCC3)C[C@H]2CN(CCc3c([nH]c4ccc(F)cc34)[C@@](C(=O)OC)(c3cc4c(cc3OC)N(C)[C@H]3[C@@](O)(C(=O)OC)[C@H](OC(C)=O)[C@]5(CC)C=CCN6CC[C@]43[C@@H]65)C2)C1` [Compound 189], which IC50 ([1]; Table 8, 10′-F compounds) is on record?
Its IC50 is 5 nM.

And the IC50 [2, 10]?
The IC50 was 6.2 nM.

Which IC50 ([6]; Homo sapiens, HCT-116/VM46, table b183) does the source give for `CC(=O)O[C@H]1C(=O)[C@@]2(C)[C@H]([C@H](OC(=O)c3ccccc3)[C@]3(O)C[C@H](OC(=O)[C@H](O)[C@@H](NC(=O)c4ccccc4)c4ccccc4)C(C)=C1C3(C)C)[C@]1(OC(C)=O)CO[C@@H]1C[C@@H]2O` [Taxol, reference compound] here?
Its IC50 is over 200 nM.

What about the “Measured fold resistant vs wt HCT116” value [6, 11] of the same molecule?
The value was over 50.

What about the IC50 [2, 8] of the same molecule?
The IC50 was 4.1 nM.

What about the “loss in potency A549-T24 relative to wild type A549” value [3] of the same molecule?
The value was 10 fold.

And the IC50 ([3]; Homo sapiens)?
The IC50 was 70 nM.

What about the “Measured fold resistant vs wt A549” value [3, 11] of the same molecule?
The value was 10.

What about the IC50 [4, 9] of the same molecule?
The IC50 was 7.1 nM.

And the IC50 ([4]; Homo sapiens, A549, read-out: IC50 wild type A549)?
The IC50 was 7.1 nM.
